Reference: ChEMBL document CHEMBL3044854, “Synthesis and biological evaluation of diamide derivatives of (S)-BINOL and biphenyl as potential anti-inflammatory/anti-arthritic agents” (2013)

Assays:
[1] = Anti-inflammatory activity in Homo sapiens (human) RBCs assessed as prevention of hemolysis at 10 ug/mL after 30 min by UV-Vis spectrophotometric analysis relative to control; assay type: functional, Erythrocyte
[2] = Anti-inflammatory activity in Homo sapiens (human) RBCs assessed as prevention of hemolysis at 200 ug/mL after 30 min by UV-Vis spectrophotometric analysis relative to control; assay type: functional, Erythrocyte
[3] = In vitro antiarthritic activity assessed as inhibition of bovine serum albumin denaturation after 20 min by UV-Visible spectrophotometric analysis; assay type: functional
[4] = In vitro antiarthritic activity assessed as inhibition of bovine serum albumin denaturation at 800 ug/mL after 20 min by UV-Visible spectrophotometric analysis relative to control; assay type: functional
[5] = In vitro antiarthritic activity assessed as inhibition of bovine serum albumin denaturation at 400 ug/mL after 20 min by UV-Visible spectrophotometric analysis relative to control; assay type: functional
[6] = In vitro antiarthritic activity assessed as inhibition of bovine serum albumin denaturation at 100 ug/mL after 20 min by UV-Visible spectrophotometric analysis relative to control; assay type: functional
[7] = Anti-inflammatory activity in Homo sapiens (human) RBCs assessed as prevention of hemolysis at 50 ug/mL after 30 min by UV-Vis spectrophotometric analysis relative to control; assay type: functional, Erythrocyte
[8] = In vitro antiarthritic activity assessed as inhibition of bovine serum albumin denaturation at 50 ug/mL after 20 min by UV-Visible spectrophotometric analysis relative to control; assay type: functional
[9] = Anti-inflammatory activity in Homo sapiens (human) RBCs assessed as prevention of hemolysis at 100 ug/mL after 30 min by UV-Vis spectrophotometric analysis relative to control; assay type: functional, Erythrocyte
[10] = In vitro antiarthritic activity assessed as inhibition of bovine serum albumin denaturation at 200 ug/mL after 20 min by UV-Visible spectrophotometric analysis relative to control; assay type: functional
[11] = tested on: Erythrocyte; assay: Anti-inflammatory activity in Homo sapiens (human) RBCs assessed as prevention of hemolysis after 30 min by UV-Vis spectrophotometric analysis; assay type: functional, cell-based

Row | SMILES | Activity [1] | Activity [2] | inhibition [3] | inhibition [4] | inhibition [5] | inhibition [6] | Activity [7] | inhibition [8] | Activity [9] | inhibition [10] | inhibition [11]
1 | O=C(Cn1cnnn1)NCCSCCOc1ccccc1-c1ccccc1OCCSCCNC(=O)Cn1cnnn1 | 54% | 89.4% | Dose-dependent effect | 91.9% | 76.3% | 42.2% | 63.3% | 21.6% | 75.3% | 65.1% | Dose-dependent effect
2 | O=C(Cn1cnnn1)NCCSCCOc1ccc2ccccc2c1-c1c(OCCSCCNC(=O)Cn2cnnn2)ccc2ccccc12 | 61.9% | 91.6% | Dose-dependent effect | 94.2% | 74.1% | 39.6% | 69.7% | 19.6% | 82.5% | 67.1% | Dose-dependent effect
3 | O=C(NCCSCCOc1ccccc1-c1ccccc1OCCSCCNC(=O)c1ccccc1)c1ccccc1 | 35.7% | 77.5% | Dose-dependent effect | 81.8% | 67.8% | 38.2% | 49% | 15.8% | 60.7% | 53% | Dose-dependent effect
4 | O=C(Cc1cccs1)NCCSCCOc1ccc2ccccc2c1-c1c(OCCSCCNC(=O)Cc2cccs2)ccc2ccccc12 | 50.2% | 86% | Dose-dependent effect | 87.4% | 73.3% | 42.2% | 61.7% | 23.6% | 72.8% | 59.1% | Dose-dependent effect
5 | O=C(NCCSCCOc1ccc2ccccc2c1-c1c(OCCSCCNC(=O)c2ccccc2)ccc2ccccc12)c1ccccc1 | 34.5% | 79.4% | Dose-dependent effect | 82.7% | 65.8% | 30.3% | 51.4% | 19.5% | 63.6% | 52.3% | Dose-dependent effect
6 | O=C(Cc1cccs1)NCCSCCOc1ccccc1-c1ccccc1OCCSCCNC(=O)Cc1cccs1 | 47.3% | 83.3% | Dose-dependent effect | 84.8% | 69.6% | 34.9% | 58.6% | 28.3% | 67.2% | 41.1% | Dose-dependent effect
7 | O=C(NCCSCCOc1ccccc1-c1ccccc1OCCSCCNC(=O)c1ccco1)c1ccco1 | 55.2% | 94.1% | Dose-dependent effect | 97.2% | 83.1% | 46.6% | 62.9% | 25.7% | 84.7% | 68.8% | Dose-dependent effect
8 | O=C(NCCSCCOc1ccc2ccccc2c1-c1c(OCCSCCNC(=O)c2ccco2)ccc2ccccc12)c1ccco1 | 56.5% | 96.2% | Dose-dependent effect | 98.7% | 87.8% | 50.8% | 65.5% | 29.5% | 88.9% | 71.5% | Dose-dependent effect
9 | C[C@]12C=CC(=O)C=C1CC[C@@H]1[C@@H]2[C@@H](O)C[C@@]2(C)[C@H]1CC[C@]2(O)C(=O)CO [PREDNISOLONE] | 46% | 91% | – | – | – | – | 57.9% | – | 84.8% | – | –
10 | O=C(O)Cc1ccccc1Nc1c(Cl)cccc1Cl | – | – | – | 76.7% | 21.6% | 10.9% | – | 5.6% | – | 15.2% | –
